Earlier results, collected in patent US11324822B2, “Combination of HDAC inhibitor and anti-PD-1 antibody for treatment of cancer” (priority 2015, dated 2022).

Legend:
histone acetylation = settings: following the administration of entinostat
[1] = in vivo

Structure (SMILES): Nc1ccccc1NC(=O)c1ccc(CNC(=O)OCc2cccnc2)cc1 [Entinostat, N-(2-aminophenyl)-4-[N-(pyridine-3-yl)methoxycarbonylamino-methyl]-benzamide]
- changes in histone acetylation following administration (histone acetylation): persist for several weeks
- half-life [1]: about 100 hours
